From patent publication US20130115220A1, “METHOD FOR PREVENTION OR TREATMENT OF METABOLIC SYNDROME” (DAINIPPON SUMITOMO PHARMA CO., LTD., priority 2010, published 2013)

Target: T1, FAS (Mus musculus, UniProt P19096)
T1 construct: endogenous in cells; host or cells: 3T3-L1 adipocytes (treated cells, then lysed)
Assay: FAS enzyme activity of treated 3T3-L1 adipocytes
Format: cell-based
Conditions: 3T3-L1 cells, C75 25 μM, 6 days
Experimental: The influence of AIM on FAS activity of adipocyte or adipose tissue was examined. FAS activity was measured by the method of Kelley (Kelley et al., Biochem. J., 1986, 235:87-90) with slight modification. 3T3-L1 adipocytes, or lysates of adipose tissue of obese mice was mixed with acetyl-CoA and NADPH (0.2 M […] phosphate buffer [pH 7.0] containing 0.4 mM EDTA), and the mixture was placed in a spectrophotometer cuvette and maintained at 30° C. 20 μl of malonyl-CoA solution (0.2 mM) was added to start an enzyme reaction and decrease of OD was measured at a chart speed 2 cm/min. Based on the results, the enzyme activity of FAS was evaluated using the molar extinction coefficient of […] NADPH as 6220.
First, the FAS activity of 3T3-L1 cells treated for 6 days in the presence or absence of rAIM (5 μg/ml), and in the presence of C75 (25 μM) was measured. Moreover, the FAS activity of adipose tissues of AIM^+/+ mice and AIM^−/− mice and the FAS activity of adipose tissue of AIM^−/− mice administered with rAIM or BSA 3 hr before by intraadipose topical injection are shown in FIGS. 28 and 29, respectively.
All mice were fed with HFD for 20 weeks. The samples were dissolved (lysed) and the FAS activity was measured. The data was converted to that based on FAS protein, according to the results of WB performed using the same sample.

T1 sequence (P19096 whole entry): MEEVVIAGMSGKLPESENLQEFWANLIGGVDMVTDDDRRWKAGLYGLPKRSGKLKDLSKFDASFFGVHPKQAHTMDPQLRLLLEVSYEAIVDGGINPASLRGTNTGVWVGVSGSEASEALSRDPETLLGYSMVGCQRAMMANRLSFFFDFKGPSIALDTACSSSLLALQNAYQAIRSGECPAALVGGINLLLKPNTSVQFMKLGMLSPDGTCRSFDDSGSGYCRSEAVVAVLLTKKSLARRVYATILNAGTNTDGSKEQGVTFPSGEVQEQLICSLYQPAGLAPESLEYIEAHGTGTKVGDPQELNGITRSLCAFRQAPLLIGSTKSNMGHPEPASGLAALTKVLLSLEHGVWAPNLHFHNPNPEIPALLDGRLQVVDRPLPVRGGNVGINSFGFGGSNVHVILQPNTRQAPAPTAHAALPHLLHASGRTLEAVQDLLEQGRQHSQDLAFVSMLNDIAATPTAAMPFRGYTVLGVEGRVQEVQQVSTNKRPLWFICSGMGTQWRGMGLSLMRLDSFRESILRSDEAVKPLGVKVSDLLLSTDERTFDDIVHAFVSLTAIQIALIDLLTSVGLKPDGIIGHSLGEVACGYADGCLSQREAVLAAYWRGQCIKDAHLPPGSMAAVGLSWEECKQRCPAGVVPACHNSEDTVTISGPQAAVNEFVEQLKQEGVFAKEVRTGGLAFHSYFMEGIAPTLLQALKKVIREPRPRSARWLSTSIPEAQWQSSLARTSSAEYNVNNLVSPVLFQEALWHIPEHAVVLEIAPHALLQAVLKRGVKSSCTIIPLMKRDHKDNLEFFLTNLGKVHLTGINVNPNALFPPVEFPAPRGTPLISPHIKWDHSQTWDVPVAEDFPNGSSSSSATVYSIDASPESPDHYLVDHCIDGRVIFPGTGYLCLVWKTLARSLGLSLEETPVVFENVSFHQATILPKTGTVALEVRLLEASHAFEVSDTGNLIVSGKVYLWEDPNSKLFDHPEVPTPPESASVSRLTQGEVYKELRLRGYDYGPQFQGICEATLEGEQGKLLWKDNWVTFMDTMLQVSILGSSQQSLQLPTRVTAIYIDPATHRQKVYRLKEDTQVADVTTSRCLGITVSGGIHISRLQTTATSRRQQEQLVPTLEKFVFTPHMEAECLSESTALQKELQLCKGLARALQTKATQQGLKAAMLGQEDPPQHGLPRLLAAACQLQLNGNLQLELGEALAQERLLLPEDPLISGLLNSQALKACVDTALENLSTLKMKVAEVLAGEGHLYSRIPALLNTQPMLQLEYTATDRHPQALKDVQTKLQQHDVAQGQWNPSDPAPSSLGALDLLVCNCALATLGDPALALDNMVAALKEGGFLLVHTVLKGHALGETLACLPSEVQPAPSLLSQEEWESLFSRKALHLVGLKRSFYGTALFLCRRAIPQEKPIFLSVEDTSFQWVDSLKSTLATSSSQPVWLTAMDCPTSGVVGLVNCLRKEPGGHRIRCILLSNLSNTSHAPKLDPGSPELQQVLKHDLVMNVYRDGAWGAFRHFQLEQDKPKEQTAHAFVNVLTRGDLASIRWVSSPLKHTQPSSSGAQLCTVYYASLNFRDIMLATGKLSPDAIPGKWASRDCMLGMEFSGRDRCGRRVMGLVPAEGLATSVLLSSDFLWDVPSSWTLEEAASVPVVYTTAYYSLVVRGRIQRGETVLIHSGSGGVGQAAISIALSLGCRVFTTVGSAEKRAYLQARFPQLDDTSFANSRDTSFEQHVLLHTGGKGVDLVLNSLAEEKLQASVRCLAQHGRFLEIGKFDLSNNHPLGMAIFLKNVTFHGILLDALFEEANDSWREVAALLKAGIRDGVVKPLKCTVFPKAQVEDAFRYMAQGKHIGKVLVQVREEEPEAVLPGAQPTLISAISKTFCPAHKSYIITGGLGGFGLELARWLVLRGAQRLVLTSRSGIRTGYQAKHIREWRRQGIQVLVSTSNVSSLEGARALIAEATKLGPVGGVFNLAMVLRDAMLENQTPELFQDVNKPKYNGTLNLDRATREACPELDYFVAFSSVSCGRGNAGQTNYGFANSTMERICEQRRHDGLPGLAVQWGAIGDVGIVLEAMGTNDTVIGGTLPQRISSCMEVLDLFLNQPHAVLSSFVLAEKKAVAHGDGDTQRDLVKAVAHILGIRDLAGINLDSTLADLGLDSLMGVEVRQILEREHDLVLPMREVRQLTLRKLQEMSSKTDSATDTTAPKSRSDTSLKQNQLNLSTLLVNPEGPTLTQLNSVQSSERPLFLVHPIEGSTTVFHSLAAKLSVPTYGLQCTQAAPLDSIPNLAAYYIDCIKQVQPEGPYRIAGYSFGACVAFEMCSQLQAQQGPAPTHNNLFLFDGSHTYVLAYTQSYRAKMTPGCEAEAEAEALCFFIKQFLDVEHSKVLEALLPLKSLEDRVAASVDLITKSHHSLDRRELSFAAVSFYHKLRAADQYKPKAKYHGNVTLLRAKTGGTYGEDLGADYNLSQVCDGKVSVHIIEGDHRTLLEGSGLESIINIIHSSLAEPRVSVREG

Structure (SMILES): C=C1C(=O)OC(CCCCCCCC)C1C(=O)O (stereo not shown) [C75, reference compound]
- FAS activity, level of suppression compared with rAIM: the same
